# Read-outs that look alike come from different tables or passages of the source.
# Tests used:
# [1] = tested on: HBV (wild-type virus: rtM204) in HepAD38 cells; assay: Suppression of HBV production in HepAD38 cells, viral DNA in supernatant by Q-PCR; assay type: cell-based; details: HepAD38 cells, 5-day incubation
# Text: The HepAD38 (wild-type virus: rtM204) and HepAD79 (3TC-resistant virus: rtV204) (Stuyver L. J. et al. 2001, Hepatol., 33:751-757) cell lines replicate HBV under conditions that can be regulated with tetracycline (King R. W. et al. 2000, Methods in Molecular Medicine, Vol 24: Antiviral Methods and Protocols, 43-50 (eds: D. Kinchington & R. F. Schinazi), Humana Press Inc, Totowa, N.J.); Ladner, et al. 1997, Antimicrob. Agents Chemother., 41:1715-1720; Ladner S. K., et al. 1998a. Antivir. Chem. Chemother., 9:65-72; Ladner S. K., et al. 1998b. Antimicrob. Agents Chemother., 42:2128-31). In the presence of this drug, the cell supernatant is virtually free of viral DNA, but upon the removal of tetracycline from the culture medium, these cells secrete virus-like particle into the supernatant.
# (§1) HepAD38 and HepAD79 cells were seeded at 5×10^4 cells/well in a 96-well plate in seeding medium (DMEM/F12+10% FBS, 50 μg/ml penicillin, 50 μg/ml streptomycin, 100 μg/ml kanamycin, 400 μg/ml G418, and 0.3 μg/ml tetracycline) and incubated for 2 days at 37° C. in a 5% CO2, humidified atmosphere. The seeding media was removed, and cells were washed 3 times with PBS. Cells were then incubated with 200 μL assay medium (DMEM/F12+10% FBS+P/S/K) containing either (i) no compound, (ii) test compound, or (iii) control drugs at 10 μM. After an additional 5-day (HepAD38) or 13-day incubation (HepAD79, with renewal of the culture media at day 7), the cell supernatant was collected and stored at −70° C. until HBV DNA was quantified.
# HBV DNA was extracted from supernatant using QiaAmp DNA blood Mini kit (Qiagen) and nucleic acids eluted in 200 μl Viral DNA was detected by quantitative PCR (Q-PCR). The TaqMan probe and primers were designed using the Primer Express software (Applied Biosystems) and cover highly conserved sequences complementary to the DNA sequences present in HBsAg. A total of 5 μl DNA was amplified using reagents and conditions as described by the manufacturer (Applied Biosystems). […]
# M522V virus (rtV204 HBV) = details: Ono S. K. et al.; cited from earlier work
# [2] = tested on: HepG2 cells (mitochondrial COXII DNA); details: for Average ΔCt ± s.d. MitCoxII / Average ΔCt ± s.d. rDNA / Average ΔΔCt ± s.d. MitCOXII-rDNA / Fold difference in COXII DNA levels normalized for rDNA (range) relative to control: HepG2, 14-day treatment
# HepG2 cells = assay: Cell growth of HepG2 cells during 14-day treatment; assay type: cell-based, human; details: HepG2, up to 100 μM, 14 days
# Procedure: In addition, these compounds were also tested in the HepG2 cell line (14-day treatment, 100 μM) for their ability to reduce mitochondrial DNA levels (using a newly designed normalized Q-PCR protocol as described in Stuyver, L. J., et al. 2002, Antimicrob. Agents Chemother., 46:3854-3860) or lactic acid production.
# [3] = tested on: HBV (3TC-resistant virus: rtV204) in HepAD79 cells; assay: microbe, parasite or virus in culture; assay type: cell-based
# Procedure: as §1
# HBV DNA was extracted from supernatant using QiaAmp DNA blood Mini kit (Qiagen) and nucleic acids eluted in 200 μl Viral DNA was detected by quantitative PCR (Q-PCR). The TaqMan probe and primers were designed using the Primer Express software (Applied Biosystems) and cover highly conserved sequences complementary to the DNA sequences present in HBsAg. A total of 5 μl DNA was amplified using reagents and conditions as described by the manufacturer (Applied Biosystems).
# Subsequently, the time course of viral induction in HepAD79 cells over a 13-day incubation period was investigated.
# Therefore, the DNA extracted from the cell supernatant was also amplified by Q-PCR for the presence of cellular DNA (the rRNA gene).
smiles,measurement,setting,value
Nc1nc(=O)n([C@@H]2C=C[C@H](CO)O2)cc1F [L-d4FC],HepAD38 log10 inhibition at 10 μM,"[1]; 10 μM, HBV DNA in supernatant",2.56 ± 0.44 log10
same,EC90,"[1]; concentration reducing viral load by 90%, unit printed in text only, read-out: HepAD38 EC90",50 ± 20 nM
same,EC50,M522V virus (rtV204 HBV),1800 nM
same,Average ΔCt ± s.d. MitCoxII,[2]; 10 μM,2.72 ± 0.27
same,Average ΔCt ± s.d. rDNA,[2]; 10 μM,3.89 ± 0.23
same,Average ΔΔCt ± s.d. MitCOXII-rDNA,[2]; 10 μM,−1.17 ± 0.47
same,Fold difference in COXII DNA levels normalized for rDNA (range) relative to control,[2]; 10 μM,2.25 (1.62-3.12)
same,Average ΔCt ± s.d. MitCoxII,[2]; 100 μM,6.52 ± 0.14
same,Average ΔCt ± s.d. rDNA,[2]; 100 μM,8.76 ± 0.47
same,Average ΔΔCt ± s.d. MitCOXII-rDNA,[2]; 100 μM,2.24 ± 0.58
same,Fold difference in COXII DNA levels normalized for rDNA (range) relative to control,[2]; 100 μM,4.72 (3.16-7.04)
same,effect on mitochondrial DNA levels (in words),"[2]; HepG2, up to 100 μM, 14 days",did not specifically affect the mitochondrial DNA levels
same,effect on cell growth (in words),HepG2 cells,reduced the cell growth significantly
same,HepAD79 log10 inhibition at 10 μM,"[3]; HepAD79 cells, 10 μM, 13-day incubation, HBV DNA in supernatant",1.64 ± 0.37 log10
same,EC90,"[3]; HepAD79 cells, 13-day incubation, read-out: HepAD79 EC90",880 nM
same,FI EC90 AD79/EC90 AD38,"[3]; fold increase, EC90 HepAD79 over EC90 HepAD38",17.6

# Reference: patent US20040157793A1, “Modified nucleosides as antiviral agents” (priority 2002, published 2004)
